SMILES strings stand for the structures.

As a reminder, the IC50 is the concentration at which inhibition is half-maximal. A low value points to greater potency.

The target of experiment [1] is mitochondrial RNA-polymerase (POLRMT) (Mus musculus, UniProt Q8BKF1). The experiment is described as follows: Homogeneous TR-FRET assay for mitochondrial transcription activity. To be noted: homogeneous TR-FRET assay according to Example 4; activity class. The format is biochemical. Summed up:
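TR-FRET read-out (340 nm excitation, 665 nm emission) of a 407 bp transcript captured by Eu-streptavidin/biotin donor and ATTO647N acceptor DNA probes after EDTA stop. Transcription ran 2 h at RT with 500 μM […], mouse POLRMT/TFAM/TFB2M and LSP-plasmid template, after 10 min compound preincubation (10 μM or dilution series).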
In general terms: Time-resolved FRET reads energy transfer from a long-lived donor to a nearby acceptor.

Experiment [2] relates to mitochondrial transcription (7S RNA) in HeLa cells. Description: Quantitative real time-PCR assay of inhibition of mitochondrial transcription (cellular qPCR assay IMT). The class given is cell-based. Conditions: Homo sapiens, 4 h compound incubation, qRT-PCR according to Example 5, activity class. The procedure:
Quantitative real-time PCR (qRT-PCR), based on the TagMan™ (Thermo Fisher Scientific, Waltham Mass.) technology, was carried out essentially as described in (Heid et al., 1996). HeLa cells were plated one day before compound treatment in RPMI medium supplemented with 10% Fetal Calf Serum and 2 mM L-glutamine. Cells were incubated with dilution series of compounds or vehicle (DMSO) for 4 h, prior to harvest and extraction of the RNA using the RNeasy Mini Kit (Qiagen, Hilden D), according to the manufacturer's instructions. RNA concentrations were measured spectroscopically, using a NanoDrop-2000 (Thermo Fisher Scientific, Waltham Mass.) and normalized prior to cDNA synthesis, using a ‘High-Capacity cDNA Reverse Transcription Kit’ (Thermo Fisher Scientific, Waltham Mass.). qRT-PCR was carried out using the ‘TaqMan Fast Advance Master Mix’ (Thermo Fisher Scientific, Waltham Mass.) on a 7500 Fast Real-Time PCR machine (Applied Biosystems, Foster City Calif.)
For these measurements, three genes were used to compare the effect of the scrutinized compounds in relation to their concentration. The POLRMT-gene was used to detect potential influences on nuclear transcription. Mitochondrial transcription in vivo was monitored by measurements 7S RNA. The TBP (TATA-box binding protein) gene was employed as the control (housekeeping gene) during qRT-PCR. The short-lived mitochondrial 7S RNA, which is not post-transcriptionally stabilized, allowed us to monitor rapid changes in mitochondrial transcription activity following compound addition. Biological triplicates were analyzed using the comparative CT Method (ΔΔCt) method (Bubner and Baldwin, 2004) and reported as Rq % values (Rq=Relative quantification=2-ΔΔCt).

Chain of mitochondrial RNA-polymerase (POLRMT) (Q8BKF1 42-1207): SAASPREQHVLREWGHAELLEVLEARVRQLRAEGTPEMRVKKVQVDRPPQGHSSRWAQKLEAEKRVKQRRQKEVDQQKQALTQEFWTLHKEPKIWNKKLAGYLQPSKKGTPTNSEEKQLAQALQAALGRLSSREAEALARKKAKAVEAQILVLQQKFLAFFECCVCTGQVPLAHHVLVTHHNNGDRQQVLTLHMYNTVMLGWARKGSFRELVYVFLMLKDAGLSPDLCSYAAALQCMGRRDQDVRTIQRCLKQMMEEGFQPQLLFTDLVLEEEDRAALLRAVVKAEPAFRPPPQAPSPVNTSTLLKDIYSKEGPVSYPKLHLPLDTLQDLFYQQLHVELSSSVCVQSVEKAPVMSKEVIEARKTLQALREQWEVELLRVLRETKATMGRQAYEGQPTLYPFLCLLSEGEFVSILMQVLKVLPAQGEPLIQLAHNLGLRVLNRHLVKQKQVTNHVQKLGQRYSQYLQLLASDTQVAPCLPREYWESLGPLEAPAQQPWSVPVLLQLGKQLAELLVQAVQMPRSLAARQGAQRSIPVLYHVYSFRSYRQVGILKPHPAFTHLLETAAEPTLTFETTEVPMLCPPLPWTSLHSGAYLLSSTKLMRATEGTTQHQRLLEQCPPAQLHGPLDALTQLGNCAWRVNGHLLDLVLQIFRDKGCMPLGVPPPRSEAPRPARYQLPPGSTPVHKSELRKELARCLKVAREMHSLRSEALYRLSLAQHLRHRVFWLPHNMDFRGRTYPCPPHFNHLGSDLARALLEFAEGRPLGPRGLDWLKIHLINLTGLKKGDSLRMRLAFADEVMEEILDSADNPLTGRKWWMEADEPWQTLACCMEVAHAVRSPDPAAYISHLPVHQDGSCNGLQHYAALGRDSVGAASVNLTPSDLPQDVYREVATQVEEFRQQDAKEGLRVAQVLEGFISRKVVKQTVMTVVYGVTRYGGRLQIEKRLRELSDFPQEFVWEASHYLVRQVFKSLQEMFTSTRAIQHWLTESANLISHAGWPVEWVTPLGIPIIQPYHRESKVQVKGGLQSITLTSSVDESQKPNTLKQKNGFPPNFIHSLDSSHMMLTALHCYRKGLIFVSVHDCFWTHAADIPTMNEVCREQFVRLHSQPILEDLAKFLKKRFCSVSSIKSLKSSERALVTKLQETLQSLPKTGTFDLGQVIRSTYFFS

For `C[C@@H](Oc1ccc2c(-c3ccccc3Cl)cc(=O)oc2c1)C(=O)N1CCC[C@H](C(=O)O)C1` [Compound 23, (3S)-1-[(2R)-2-[4-(2-chlorophenyl)-2-oxo-chromen-7-yl]oxypropanoyl]piperidine-3-carboxylic acid], the IC50 was less than 20 nM in experiment [1] and less than 10 nM in experiment [2].
As for `CNC(=O)[C@H]1CCCN(C(=O)[C@@H](C)Oc2ccc3c(-c4ccc(F)cc4Cl)cc(=O)oc3c2)C1` [Compound 122], the concentration for half-maximal inhibition (IC50) was 20 to 100 nM in experiment [1] and less than 10 nM in experiment [2].
For `C[C@@H](Oc1ccc2c(-c3ccc(F)cc3Cl)cc(=O)oc2c1)C(=O)N1CC[C@H](C(=O)O)C1` [Compound 159, (3S)-1-[(2R)-2-[4-(2-chloro-4-fluoro-phenyl)-2-oxo-chromen-7-yl]oxypropanoyl]pyrrolidine-3-carboxylic acid], the IC50 in experiment [1] lay in the range of 20 to 100 nM; in experiment [2], 500 to 5000 nM.
The matching figures for `CCC(=O)N1CCN(C(=O)[C@@H](C)Oc2ccc3c(-c4ccc(F)cc4Cl)cc(=O)oc3c2)CC1` [Compound 168, 4-(2-chloro-4-fluoro-phenyl)-7-[(1R)-1-methyl-2-oxo-2-(4-propanoylpiperazin-1-yl)ethoxy]chromen-2-one]: less than 20 nM and less than 10 nM.
Taken in the same sequence, the figures for `C[C@@H](Oc1ccc2c(-c3ccc(F)cc3Cl)cc(=O)oc2c1)C(=O)N1CCC[C@H](CC(=O)O)C1` [Compound 106, 2-[(3R)-1-[(2R)-2-[4-(2-chloro-4-fluoro-phenyl)-2-oxo-chromen-7-yl]oxypropanoyl]-3-piperidyl]acetic acid] were less than 20 nM and less than 10 nM.
For `CC(Oc1ccc2c(-c3ccccc3Cl)cc(=O)oc2c1)C(=O)N1CCCC(S(N)(=O)=O)C1` (stereo not shown) [Compound 24, 1-[2-[4-(2-chlorophenyl)-2-oxo-chromen-7-yl]oxypropanoyl]piperidine-3-sulfonamide], the IC50 in experiment [1] was less than 20 nM; in experiment [2] it was less than 10 nM.
The matching figures for `CC(Oc1ccc2c(-c3ccccc3Cl)cc(=O)oc2c1)C(=O)N1CCC(CC(=O)O)CC1` (stereo not shown) [Compound 59, 2-[1-[2-[4-(2-chlorophenyl)-2-oxo-chromen-7-yl]oxypropanoyl]-4-piperidyl]acetic acid]: 20 to 100 nM and 10 to 50 nM.
Turning to `CC(Oc1ccc2c(-c3ccccc3Cl)cc(=O)oc2c1)C(=O)N1CCCC(CC(=O)O)C1` (stereo not shown) [Compound 66, 2-[1-[2-[4-(2-chlorophenyl)-2-oxo-chromen-7-yl]oxypropanoyl]-3-piperidyl]acetic acid], the IC50 in experiment [1] is 20 to 100 nM; in experiment [2], less than 10 nM.
Regarding `CCNC(=O)C(C)Oc1ccc2c(-c3ccc(F)cc3Cl)cc(=O)oc2c1` (stereo not shown) [Compound 91, 2-[4-(2-chloro-4-fluoro-phenyl)-2-oxo-chromen-7-yl]oxy-N-ethyl-propanamide], the IC50 in experiment [1] was 20 to 100 nM; in experiment [2], less than 10 nM.
The matching figures for `Cc1ccsc1-c1cc(=O)oc2cc(O[C@H](C)C(=O)NC(C)C)ccc12` [Compound 178, (2R)-N-isopropyl-2-[4-(3-methyl-2-thienyl)-2-oxo-chromen-7-yl]oxy-propanamide]: 100 to 1000 nM and 10 to 50 nM.
The matching figures for `C=CC(=O)N[C@H]1CCCN(C(=O)[C@@H](C)Oc2ccc3c(-c4ccc(F)cc4Cl)cc(=O)oc3c2)C1` [Compound 165, N-[(3S)-1-[(2R)-2-[4-(2-chloro-4-fluoro-phenyl)-2-oxo-chromen-7-yl]oxypropanoyl]-3-piperidyl]prop-2-enamide]: less than 20 nM and less than 10 nM.
Taken in the same sequence, the figures for `CC(Oc1ccc2c(-c3ccccc3Cl)cc(=O)oc2c1)C(=O)N(C)C` (stereo not shown) [Compound 93, 2-[4-(2-chlorophenyl)-2-oxo-chromen-7-yl]oxy-N,N-dimethyl-propanamide] were 20 to 100 nM and less than 10 nM.
Turning to `C[C@@H](Oc1ccc2c(-c3ccc(F)cc3Cl)cc(=O)oc2c1)C(=O)N1CCC[C@H](C(=O)OC(C)(C)C)C1` [Compound 118, tert-butyl (3S)-1-[(2R)-2-[4-(2-chloro-4-fluoro-phenyl)-2-oxo-chromen-7-yl]oxypropanoyl] piperidine-3-carboxylate], the IC50 in experiment [1] lay in the range of 20 to 100 nM; in experiment [2] it was 50 to 500 nM.
Taken in the same sequence, the figures for `Cc1ccccc1-c1cc(=O)oc2cc(OC(C)C(=O)N3CCCC(C(=O)O)C3)ccc12` (stereo not shown) [Compound 8, 1-[2-[4-(o-tolyl)-2-oxo-chromen-7-yl]oxypropanoyl]piperidine-3-carboxylic acid] were less than 20 nM and less than 10 nM.
Taken in the same sequence, the figures for `C[C@@H](Oc1ccc2c(-c3ccc(F)cc3Cl)cc(=O)oc2c1)C(=O)N1CCC[C@@H](CC(=O)O)C1` [Compound 107, 2-[(3S)-1-[(2R)-2-[4-(2-chloro-4-fluoro-phenyl)-2-oxo-chromen-7-yl]oxypropanoyl]-3-piperidyl]acetic acid] were less than 20 nM and less than 10 nM.
`CC(C)(Oc1ccc2c(-c3ccccc3Cl)cc(=O)oc2c1)C(=O)N1CCC[C@H](C(=O)O)C1` [Compound 116, (3S)-1-[2-[4-(2-chlorophenyl)-2-oxo-chromen-7-yl]oxy-2-methyl-propanoyl]piperidine-3-carboxylic acid]: the IC50 in experiment [1] fell in the range of 100 to 1000 nM; in experiment [2], 500 to 5000 nM.
The matching figures for `CC(C)NC(=O)[C@@H](C)Oc1ccc2c(-c3ccccc3Cl)cc(=O)oc2c1` [Compound 56, (2R)-2-[4-(2-chlorophenyl)-2-oxo-chromen-7-yl]oxy-N-isopropyl-propanamide]: 20 to 100 nM and less than 10 nM.
The matching figures for `C[C@@H](Oc1ccc2c(-c3ccc(F)cc3Cl)cc(=O)oc2c1)C(=O)N1CCC[C@H](CC(=O)OCCN2CCOCC2)C1` [Compound 125]: less than 20 nM and less than 10 nM.
The matching figures for `C[C@@H](Oc1ccc2c(-c3ccc(F)cc3Cl)cc(=O)oc2c1)C(=O)N1CCN(C)C(C(=O)O)C1` (mixture of isomers) [Compound 161, 1-methyl-4-[rac-(2R)-2-[4-(2-chloro-4-fluoro-phenyl)-2-oxo-chromen-7-yl]oxypropanoyl]piperazine-2-carboxylic acid]: 100 to 1000 nM and 500 to 5000 nM.
For the compound `CCOC(=O)CC1CCCN(C(=O)C(C)Oc2ccc3c(-c4ccccc4Cl)cc(=O)oc3c2)C1` (stereo not shown) [Compound 86, ethyl 2-[1-[2-[4-(2-chlorophenyl)-2-oxo-chromen-7-yl]oxypropanoyl]-3-piperidyl]acetate], the IC50 in experiment [1] was 20 to 100 nM; in experiment [2] it was 10 to 50 nM.
As for `CC(Oc1ccc2c(-c3ccccc3Cl)cc(=O)oc2c1)C(=O)N1CCCC(C(=O)O)C1` (stereo not shown) [Compound 9, 1-[2-[4-(2-chlorophenyl)-2-oxo-chromen-7-yl]oxypropanoyl]piperidine-3-carboxylic acid], the 50% inhibitory concentration (IC50) is less than 20 nM in experiment [1] and less than 10 nM in experiment [2].
The matching figures for `C[C@@H](Oc1ccc2c(-c3ccc(F)cc3Cl)cc(=O)oc2c1)C(=O)N1CC[C@H](CC(=O)O)C1` [Compound 145, 2-[(3R)-1-[(2R)-2-[4-(2-chloro-4-fluoro-phenyl)-2-oxo-chromen-7-yl]oxypropanoyl]pyrrolidin-3-yl]acetic acid]: 20 to 100 nM and less than 10 nM.
The matching figures for `CC(Oc1ccc2c(-c3ccccc3Cl)cc(=O)oc2c1)C(=O)N1CCCC(C)(C(=O)O)C1` (stereo not shown) [Compound 54, 1-[2-[4-(2-chlorophenyl)-2-oxo-chromen-7-yl]oxypropanoyl]-3-methyl-piperidine-3-carboxylic acid]: less than 20 nM and less than 10 nM.
Taken in the same sequence, the figures for `Cc1ccccc1-c1cc(=O)oc2cc(OC(C)C(=O)N3CCC[C@H](C(=O)N(C)C)C3)ccc12` (stereo partly drawn) [Compound 84, (3S)-N,N-dimethyl-1-[2-[4-(o-tolyl)-2-oxo-chromen-7-yl]oxypropanoyl]piperidine-3-carboxamide] were 20 to 100 nM and 10 to 50 nM.
As for `C[C@@H](Oc1ccc2c(-c3ccccc3Cl)cc(=O)oc2n1)C(=O)N1CCC[C@H](C(=O)O)C1` [Compound 172, (3S)-1-[(2R)-2-[4-(2-chlorophenyl)-2-oxo-pyrano[2,3-b]pyridin-7-yl]oxypropanoyl]piperidine-3-carboxylic acid], the results for the IC50 in experiment [1] and in experiment [2] were 20 to 100 nM and 50 to 500 nM, respectively.
As for `CC(Oc1ccc2c(-c3ccc(F)cc3Cl)cc(=O)oc2c1)C(=O)N1CCCC(C)(C(=O)O)C1` (stereo not shown) [Compound 37, 1-[2-[4-(2-chloro-4-fluoro-phenyl)-2-oxo-chromen-7-yl]oxypropanoyl]-3-methyl-piperidine-3-carboxylic acid], the IC50 in experiment [1] was less than 20 nM; in experiment [2] it was less than 10 nM.

Source of the values: patent US11111238B2, “Coumarin derivatives, processes for their preparation and uses thereof for the treatment of cancer” (Lead Discovery Center GmbH, priority 2017, dated 2021).
